# Biological target: T1, human Kv72+3 channels (Homo sapiens, UniProt O43525+O43526)
# T1 construct: expressed in transfected cells
# Assay: Patch-clamp on HEK293 cells stably expressing human Kv7.2+3 channels
# Assay type: cell-based
# Settings: conc. 0.03 μM, −30 mV, 20 ms, current relative to baseline current defined as 100%, read-out: IK (%)
# Description: The effect obtained by these channel activators is described as a percentage increase in baseline current at a given concentration. The baseline current is defined as 100%, and an increase in current is expressed relative to this, i.e. an increase from 1 nA to 1.2 nA is reported as 120%.
row,activity at 0.03 µM,Compound
1,155%,"CC(C)(C)CC(=O)Nc1ccc(NCc2ccc3c(c2)OCO3)nc1N1CCCC1 [Compound 14, N-{6-[(Benzo[1,3]dioxol-5-ylmethyl)-amino]-2-pyrrolidin-1-yl-pyridin-3-yl}-3,3-dimethyl-butyramide]"
2,192%,"O=C(Nc1ccc(NCc2ccc(F)cc2)nc1N1CCCC1)[C@@H]1C[C@H]1c1ccccc1 [Compound 7, (R)-2-Phenyl-cyclopropanecarboxylic acid [6-(4-fluoro-benzylamino)-2-pyrrolidin-1-yl-pyridin-3-yl]-amide]"
3,490%,"N#Cc1ccc(CNc2ccc(NC(=O)Cc3cc(F)cc(F)c3)c(N3CCCC3)n2)cc1 [Compound 17, N-[6-(4-Cyano-benzylamino)-2-pyrrolidin-1-yl-pyridin-3-yl]-2-(3,5-difluoro-phenyl)-acetamide]"
4,239%,"CC(C)(C)CC(=O)Nc1ccc(NCc2ccc(F)cc2)nc1N1CCCC1 [Compound 9, N-[6-(4-Fluoro-benzylamino)-2-pyrrolidin-1-yl-pyridin-3-yl]-3,3-dimethyl-butyramide]"
5,842%,COc1ccc(CNc2ccc(NC(=O)Cc3cc(F)cc(F)c3)c(N3CCCC3)n2)cc1 [Compound 19]
6,306%,"O=C(Cc1ccc(C(F)(F)F)c(F)c1)Nc1ccc(NCc2ccc(F)cc2)nc1N1CCCC1 [Compound 1, N-[6-(4-Fluoro-benzylamino)-2-pyrrolidin-1-yl-pyridin-3-yl]-2-(3-fluoro-4-trifluoromethyl-phenyl)-acetamide]"

# Source: patent US20110039896A1, “NOVEL 2-PYRROLIDINYL-3-AMIDO-6-AMINO-PYRIDINE DERIVATIVES USEFUL AS POTASSIUM CHANNEL ACTIVATORS” (NeuroSearch A/S, priority 2007, published 2011)
